In PMC8533333, “Melatonin Analogues Potently Inhibit MAO-B and Protect PC12 Cells against Oxidative Stress” (Antioxidants, 2021):

How the values were obtained:
[1] = molecular target: T1, Human recombinant MAO-A (hMAO-A) (Homo sapiens, UniProt P21397); experiment: MAO-A enzyme assay (Amplex Red), selectivity; format: biochemical
T1 construct: purchased Sigma Aldrich; host or cells: insect cells
T1 sequence (P21397 1-527): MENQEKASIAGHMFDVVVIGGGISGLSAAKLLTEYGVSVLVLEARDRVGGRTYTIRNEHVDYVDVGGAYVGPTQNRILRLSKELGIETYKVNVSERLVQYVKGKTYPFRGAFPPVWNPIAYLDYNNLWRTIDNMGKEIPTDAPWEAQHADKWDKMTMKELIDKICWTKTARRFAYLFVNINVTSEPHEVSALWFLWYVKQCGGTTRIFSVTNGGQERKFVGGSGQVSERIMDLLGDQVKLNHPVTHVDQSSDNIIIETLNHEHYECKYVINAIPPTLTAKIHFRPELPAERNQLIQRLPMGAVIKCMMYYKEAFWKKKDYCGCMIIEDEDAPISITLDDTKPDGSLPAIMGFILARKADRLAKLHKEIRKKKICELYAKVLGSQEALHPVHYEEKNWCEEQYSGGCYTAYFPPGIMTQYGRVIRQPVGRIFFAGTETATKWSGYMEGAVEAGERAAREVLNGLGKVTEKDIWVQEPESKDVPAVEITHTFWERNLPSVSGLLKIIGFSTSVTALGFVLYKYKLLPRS
Description: Biological evaluation of the synthesized melatonin derivatives over both MAO-A and MAO-B was performed as reported previously. A detailed description of the protocol is in the Supplementary Materials.
6. Materials and methods of monoamine oxidase (MAO) enzyme assay
The inhibitory activity of MAO-A, B enzyme of the compounds was evaluated based on previously described method. The MAO activity was measured in relative fluorescence units (RFU) evoked by peroxidase-catalyzed oxidation of Amplex Red® to resorufin, in which H2O2 generated by MAO reaction was used as the […]. Human recombinant MAO-A (hMAO-A) and MAO-B (hMAO-B) enzyme expressed in insect cells were obtained from Sigma Aldrich. The 2 μL of test compound in DMSO (final concentration: 1 nM – 10 μM) was treated with 98 μL of hMAO enzyme solution in 50 mM sodium phosphate buffer (pH 7.4, final protein amounts: ~1.25 μg protein/well for MAO-A and ~2.5 μg protein/well for MAO -B) on 96-well black plate and incubated for 15 min at 37 °C. Then 100 μL of reaction working solution which is mixed solution of 400 μM Amplex Red® (Cayman, final concentration: 200 μM), 2 U/mL horseradish peroxidase ( Sigma-Aldrich, final concentration: 1 U/mL) and 2 mM substrate ( p-tyramine for MAO -A, benzylamine for MAO -B, Sigma-Aldrich, final concentration: 1 mM) in 50 mM sodium phosphate buffer (pH 7.4) were added and incubated for 20 min at 37 °C in the dark. The fluorescent intensity was quantified using a microplate reader (SpectraMax®i3, Molecular Device) with an excitation at 545 nm and an emission at 590 nm. The 50% inhibitory concentrations (IC50) of compounds were determined as the mean ± S.E.M. in triplicate from the dose-response inhibition curves using SigmaPlot® 13.0.
monoamine oxidase inhibitors. Bioorganic & medicinal chemistry 2015, 23, 6486-6496,

[2] = system: PC12 cells; experiment: Cytotoxicity in PC12 cells (MTT assay); format: cell-based, rat; details: 10 and 30 μM, 24 h
Description: (§1) Control cells were incubated in an equivalent volume of DMSO to a final concentration of 0.3%. Neuroprotective effects of the tested compounds on the toxicity induced by 6-OHDA or rotenone in PC12 cells were evaluated as described previously with slight modifications. In brief, cells were pre-treated with the tested compounds or rasagiline at the indicated concentrations for 4 h. Next, they were exposed to 6-OHDA (50 μM) or rotenone (1 μM) for 24 h. In another set of experiments, the influence of HO-1 inhibitor, ZnPP, on the neuroprotective effects of the tested compounds against 6-OHDA-induced oxidative damage was investigated as previously reported. Briefly, the cells were pre-treated with the tested compounds for 4 h and then incubated with 0.2 µM of ZnPP for 30 min. Subsequently, 6-OHDA was added at a final concentration of 50 µM and incubated for 24 h.
After the desired treatment, cell viability was determined by MTT assay as described previously. Briefly, MTT was added to the cells at the final concentration of 0.5 mg/mL, which was followed by incubation for 3 h at 37 °C. […] The absorbance of the dissolved solution was measured at 550 nm using a microplate reader (SpectraMax M2^e, Molecular Devices, Sunnyvale, CA, USA). The cell viability was presented as the percentage of the absorbance measured in the vehicle-treated control cells.
Cell viabilities were measured by MTT assay.

[3] = system: PC12 cells; experiment: Neuroprotection against rotenone-induced toxicity in PC12 cells (MTT); details: Rattus norvegicus, PC-12, 24 h, read-out: IC50 of protection from rotenone-induced toxicity
Description: as §1
After the desired treatment, cell viability was determined by MTT assay as described previously. Briefly, MTT was added to the cells at the final concentration of 0.5 mg/mL, which was followed by incubation for 3 h at 37 °C. The supernatants were carefully removed, and then, 300 μL of DMSO was added to each well to dissolve formazan precipitate. The absorbance of the dissolved solution was measured at 550 nm using a microplate reader (SpectraMax M2^e, Molecular Devices, Sunnyvale, CA, USA). The cell viability was presented as the percentage of the absorbance measured in the vehicle-treated control cells.

[4] = system: Nrf2; experiment: Nuclear translocation of Nrf2 in PC12 cells (Western blotting); format: cell-based, rat; details: for time of peak Nrf2 protein expression: 10 μM; for nuclear translocation of Nrf2: PC12 nuclear fraction, Western blotting
Description: PC12 cells were seeded on 35 mm dishes at a density of 2 × 10^6 cells/dish and kept at 37 °C in humidified incubator for at least 24 h. Cells were treated with a series of concentrations of the tested compounds for 12 h or with the tested compounds (10 μM) for the indicated time points. Control cells were treated with serum-free media containing 0.3% DMSO instead. Total cell lysates were prepared according to the methods described previously, and stored at −20 °C until used. To evaluate the effects of the tested compounds on the nuclear translocation of Nrf2, nuclear fraction was separated from cytosolic fraction using NE-PER Nuclear and Cytoplasmic Extraction Reagents (Rockford, IL, USA), following the manufacturer’s directions. The protein concentrations were assessed using a BioRad DC protein assay kit (BioRad, Hercules, CA, USA). Equal amounts of proteins (20 µg) were resolved on 12% or 8% gels via sodium dodecyl sulfate-polyacrylamide gel electrophoresis and electrophoretically transferred onto nitrocellulose membrane (Whatman, Clifton, NJ, USA). Subsequently, immunoblotting was performed using anti-HO-1 or anti-Nrf2 antibodies, respectively, according to the procedures reported previously. Beta-actin, a highly conserved cytoskeletal protein, was used as a loading control of cell lysates to normalize the level of HO-1, while nuclear protein lamin B was used as a nuclear loading control to normalize the level of Nrf2 in the nuclear fraction. Finally, the immunoreactive bands corresponding to HO-1 or Nrf2 proteins were visualized using Clarity^TM Western ECL substrate (Bio-Rad, Hercules, CA, USA) using the BioRad ChemiDoc XRS imaging system (Bio-Rad, Hercules, CA, USA).
Nrf2 is a transcription factor involved in the expression of antioxidant defense enzymes in response to oxidative stress. Upon nuclear translocation, Nrf2 binds to antioxidant response elements (AREs), leading to the transcription of ARE genes such as HO-1 [111]. […] Nrf2 protein expression peaked after 6 h of treatment with each compound at 10 μM (Figure 15A,B). […] The nuclear translocation of Nrf2 was increased by 3n and 3r in concentration-dependent manners (Figure 16C,D).

**Q.** How did the IC50 [1] turn out when `O=C(Nc1ccc2[nH]ccc2c1)c1cccc(Cl)c1` [3n, 3-Chloro-N-(1H-indol-5-yl)benzamide] was run?
**A.** The IC50 was > 100 µM.

**Q.** What about the “cytotoxic effects on PC12 cells” value [2] of the same compound?
**A.** The value was “did not show any significant cytotoxic effects”.

**Q.** What about the IC50 [3] of the same compound?
**A.** Its IC50 is 1.4 µM.

**Q.** What about the “time of peak Nrf2 protein expression” value [4] of the same compound?
**A.** The value was 6 h.

**Q.** And the “nuclear translocation of Nrf2” value [4]?
**A.** Its value is “increased”.

**Q.** Which results are given for `O=C(Nc1ccc2[nH]ccc2c1)c1cccc(Br)c1` [3r, 3-Bromo-N-(1H-indol-5-yl)benzamide]?
**A.** IC50 [1]: > 100 µM; cytotoxic effects on PC12 cells [2]: did not show any significant cytotoxic effects; IC50 [3]: 0.87 µM; time of peak Nrf2 protein expression [4]: 6 h; nuclear translocation of Nrf2 [4]: increased
